In US20080039515A1, “Arylpyrazoles And Methods Of Using Same For Control Of Insect Pests That Bore Into Trees” (The Texas A&M University System, priority 2004, published 2008):
Read-outs that look alike come from different tables or passages of the source.

Tested on: Ips engravers beetles
Format: in vivo
Experimental: Study Sites: Two 20-year-old, recently thinned loblolly pine plantations were selected in Texas. Trees in one plantation were injected for use in a bolt study (Trial 1). Trees in ½ acre section of the second plantation were injected as part of a single-tree protection study (Trial 2). A staging area also was set up in the second plantation where bolts from the first plantation were exposed to bark beetles and wood borers.
Population Monitoring: A clear panel of acetate (10 cm wide by 25 cm long) was attached to the center of each bolt after deployment of bolts or 2 m high on standing trees after deployment of pheromone baits to monitor arrival of bark beetles. The top surface of each panel was coated entirely with Stikem Special® trapping compound (Michel and Pelton, Emeryville, Calif.). The traps were left in place for two weeks.
After 1 (May 24), 3 (July 19) and 5 (September) months post-injection, 5 trees of each treatment were felled and two 1.5 m long bolts were removed from the 3 m and 8 m heights of the bole. Because southern pine beetle (SPB) populations were extremely low in east Texas during the study year, Ips engravers were used as alternative bark beetles for this study. The bolts were transported to a 20-year-old loblolly plantation that was recently thinned and contained fresh slash material. Each bolt was placed about 1 m apart on discarded, dry pine bolts to maximize surface area available for colonization as well as to discourage predation by ground and litter-inhabiting organisms. To facilitate timely bark beetle colonization, packets of bark beetle pheromones (racemic ipsdienol +lanerione combination, ipsenol or cis-verbenol; Phero Tech, Inc., Delta, BC, Canada) were attached separately to three 1 m stakes evenly spaced in the study area. Racemic ipsdienol and cis-verbenol were used with the second series of bolts deployed in July. The packets were removed after 2 weeks when signs of attacks (boring dust) were observed on most test bolts, signaling that naturally-produced pheromones were present.
Treatment Evaluation: Trial 1. The first and second series of bolts were retrieved 2.5 and 3 weeks, respectively, after deployment, after observing many cerambycid attacks on most of the bolts. In the laboratory, two 10×50 cm strips (total=1000 cm^2) of bark were removed from each bolt. Several measurements were made relating to construction of nuptial chambers and egg galleries and development of brood: • 1. Number of unsuccessful attacks—penetration to phloem, but no egg galleries. • 2. Number of successful attacks—construction of nuptial chamber and at least one egg gallery extending from it. • 3. Number and lengths of egg galleries with brood galleries radiating from them. • 4. Number and lengths of egg galleries without brood galleries. • 5. Cerambycid activity, estimated by overlaying a 100 cm^2 grid over a portion of each bark strip and counting the number of squares overlapping area where cerambycids had fed.
Treatment efficacy was determined by comparing Ips beetle attacks and egg gallery length and cerambycid feeding on treated and untreated bolts. The data were transformed by log10(x+1) to satisfy criteria for normality and homoscedasticity (Zar 1984) and analyzed by GLM and the Fishers Protected LSD test using the Statview statistical program.

[1] = 1 month post-injection (May), bolt height 3 m
[2] = 1 month post-injection (May), bolt height 8 m
[3] = 3 months post-injection (July), bolt height 3 m
[4] = 3 months post-injection (July), bolt height 8 m
[5] = 3 months post-injection, bolt height 3 m
[6] = 3 months post-injection, bolt height 8 m
[7] = 5 months post-injection (Sept.), bolt height 3 m
[8] = 5 months post-injection (Sept.), bolt height 8 m

Q: Which “Length of Egg Galleries Total” value [1] does the source give for `N#Cc1nn(-c2c(Cl)cc(C(F)(F)F)cc2Cl)c(N)c1[S+]([O-])C(F)(F)F` (stereo not drawn) [Fip, 5-amino-3-cyano-1-(2,6-dichloro-4-trifluoromethylphenyl)-4-trifluoromethylsulfinylpyrazole] here?
A: 135.0

Q: What about the “Length of Egg Galleries With Brood” value [1] of the same molecule?
A: 70.6 cm

Q: And the “Length of Egg Galleries With Brood % of Total” value [1]?
A: 52.3%

Q: What about the “Length of Egg Galleries Without Brood” value [1] of the same molecule?
A: 64.4 cm

Q: And the “Length of Egg Galleries Without Brood % of Total” value [1]?
A: 47.7%

Q: And the “Mean # of Ips caught/trap” value [1]?
A: 4.0

Q: And the “Number of Egg Galleries Total” value [1]?
A: 33.6

Q: And the “Number of Egg Galleries With Brood % of Total” value [1]?
A: 29.8%

Q: What about the “Number of Egg Galleries With Brood No.” value [1] of the same molecule?
A: 10.0

Q: What about the “Number of Egg Galleries Without Brood % of Total” value [1] of the same molecule?
A: 70.2%

Q: And the “Number of Egg Galleries Without Brood No.” value [1]?
A: 23.6

Q: And the “Nuptial Chambers Total” value [1]?
A: 21.0

Q: And the “Nuptial Chambers With Egg Galleries % of Total” value [1]?
A: 51.4%

Q: What about the “Nuptial Chambers With Egg Galleries No.” value [1] of the same molecule?
A: 10.8

Q: And the “Nuptial Chambers Without Egg Galleries No.” value [1]?
A: 10.2

Q: What about the “Length of Egg Galleries Total” value [2] of the same molecule?
A: 332.8

Q: And the “Length of Egg Galleries With Brood” value [2]?
A: 183.2 cm

Q: What about the “Length of Egg Galleries With Brood % of Total” value [2] of the same molecule?
A: 55.0%

Q: What about the “Length of Egg Galleries Without Brood” value [2] of the same molecule?
A: 149.6 cm

Q: And the “Length of Egg Galleries Without Brood % of Total” value [2]?
A: 45.0%

Q: What about the “Mean # of Ips caught/trap” value [2] of the same molecule?
A: 3.6

Q: And the “Number of Egg Galleries Total” value [2]?
A: 73.0

Q: And the “Number of Egg Galleries With Brood % of Total” value [2]?
A: 36.7%

Q: And the “Number of Egg Galleries With Brood No.” value [2]?
A: 26.8

Q: And the “Number of Egg Galleries Without Brood % of Total” value [2]?
A: 63.3%

Q: What about the “Number of Egg Galleries Without Brood No.” value [2] of the same molecule?
A: 46.2

Q: And the “Nuptial Chambers Total” value [2]?
A: 25.8

Q: And the “Nuptial Chambers With Egg Galleries % of Total” value [2]?
A: 89.9%

Q: What about the “Nuptial Chambers With Egg Galleries No.” value [2] of the same molecule?
A: 23.2

Q: And the “Nuptial Chambers Without Egg Galleries % of Total” value [2]?
A: 10.1%

Q: And the “Nuptial Chambers Without Egg Galleries No.” value [2]?
A: 2.6

Q: And the “Mean # of Ips caught/trap” value [3]?
A: 4.8

Q: What about the “Nuptial Chambers Total” value [3] of the same molecule?
A: 12.6

Q: And the “Nuptial Chambers With Egg Galleries % of Total” value [3]?
A: 22.2%

Q: What about the “Nuptial Chambers With Egg Galleries No.” value [3] of the same molecule?
A: 2.8

Q: And the “Nuptial Chambers Without Egg Galleries No.” value [3]?
A: 9.8

Q: And the “Mean # of Ips caught/trap” value [4]?
A: 4.6

Q: And the “Nuptial Chambers Total” value [4]?
A: 21.0

Q: And the “Nuptial Chambers With Egg Galleries % of Total” value [4]?
A: 8.6%

Q: And the “Nuptial Chambers With Egg Galleries No.” value [4]?
A: 1.8

Q: And the “Nuptial Chambers Without Egg Galleries No.” value [4]?
A: 19.2

Q: What about the “Length of Egg Galleries Total” value [5] of the same molecule?
A: 19.4

Q: And the “Length of Egg Galleries With Brood” value [5]?
A: 0.0 cm

Q: What about the “Length of Egg Galleries With Brood % of Total” value [5] of the same molecule?
A: 0.0%

Q: And the “Length of Egg Galleries Without Brood” value [5]?
A: 19.4 cm

Q: And the “Length of Egg Galleries Without Brood % of Total” value [5]?
A: 100.0%

Q: What about the “Number of Egg Galleries Total” value [5] of the same molecule?
A: 5.6

Q: And the “Number of Egg Galleries With Brood % of Total” value [5]?
A: 0.0%

Q: And the “Number of Egg Galleries With Brood No.” value [5]?
A: 0.0

Q: And the “Number of Egg Galleries Without Brood % of Total” value [5]?
A: 100.0%

Q: What about the “Number of Egg Galleries Without Brood No.” value [5] of the same molecule?
A: 5.6

Q: And the “Length of Egg Galleries Total” value [6]?
A: 9.2

Q: What about the “Length of Egg Galleries With Brood” value [6] of the same molecule?
A: 1.0 cm

Q: And the “Length of Egg Galleries With Brood % of Total” value [6]?
A: 10.9%

Q: What about the “Length of Egg Galleries Without Brood” value [6] of the same molecule?
A: 8.2 cm

Q: And the “Length of Egg Galleries Without Brood % of Total” value [6]?
A: 89.1%

Q: And the “Number of Egg Galleries Total” value [6]?
A: 3.0

Q: What about the “Number of Egg Galleries With Brood % of Total” value [6] of the same molecule?
A: 6.7%

Q: What about the “Number of Egg Galleries With Brood No.” value [6] of the same molecule?
A: 0.2

Q: What about the “Number of Egg Galleries Without Brood % of Total” value [6] of the same molecule?
A: 93.3%

Q: And the “Number of Egg Galleries Without Brood No.” value [6]?
A: 2.8

Q: What about the “Length of Egg Galleries Total” value [7] of the same molecule?
A: 5.8

Q: What about the “Length of Egg Galleries With Brood” value [7] of the same molecule?
A: 3.4 cm

Q: And the “Length of Egg Galleries With Brood % of Total” value [7]?
A: 58.6%

Q: What about the “Length of Egg Galleries Without Brood” value [7] of the same molecule?
A: 2.4 cm

Q: And the “Length of Egg Galleries Without Brood % of Total” value [7]?
A: 41.4%

Q: What about the “Mean # of Ips caught/trap” value [7] of the same molecule?
A: 1.2

Q: And the “Number of Egg Galleries Total” value [7]?
A: 1.0

Q: And the “Number of Egg Galleries With Brood % of Total” value [7]?
A: 40.0%

Q: What about the “Number of Egg Galleries With Brood No.” value [7] of the same molecule?
A: 0.4

Q: And the “Number of Egg Galleries Without Brood % of Total” value [7]?
A: 60.0%

Q: What about the “Number of Egg Galleries Without Brood No.” value [7] of the same molecule?
A: 0.6

Q: And the “Nuptial Chambers Total” value [7]?
A: 8.0

Q: And the “Nuptial Chambers With Egg Galleries % of Total” value [7]?
A: 7.5%

Q: And the “Nuptial Chambers With Egg Galleries No.” value [7]?
A: 0.6

Q: And the “Nuptial Chambers Without Egg Galleries % of Total” value [7]?
A: 92.5%

Q: What about the “Nuptial Chambers Without Egg Galleries No.” value [7] of the same molecule?
A: 7.4

Q: And the “Length of Egg Galleries Total” value [8]?
A: 15.2

Q: What about the “Length of Egg Galleries With Brood” value [8] of the same molecule?
A: 13.0 cm

Q: What about the “Length of Egg Galleries With Brood % of Total” value [8] of the same molecule?
A: 85.5%

Q: What about the “Length of Egg Galleries Without Brood” value [8] of the same molecule?
A: 2.2 cm

Q: And the “Length of Egg Galleries Without Brood % of Total” value [8]?
A: 14.5%

Q: What about the “Mean # of Ips caught/trap” value [8] of the same molecule?
A: 0.8

Q: What about the “Number of Egg Galleries Total” value [8] of the same molecule?
A: 2.0

Q: What about the “Number of Egg Galleries With Brood % of Total” value [8] of the same molecule?
A: 60.0%

Q: What about the “Number of Egg Galleries With Brood No.” value [8] of the same molecule?
A: 1.2

Q: What about the “Number of Egg Galleries Without Brood % of Total” value [8] of the same molecule?
A: 40.0%

Q: And the “Number of Egg Galleries Without Brood No.” value [8]?
A: 0.8

Q: What about the “Nuptial Chambers Total” value [8] of the same molecule?
A: 6.6

Q: And the “Nuptial Chambers With Egg Galleries % of Total” value [8]?
A: 18.2%

Q: What about the “Nuptial Chambers With Egg Galleries No.” value [8] of the same molecule?
A: 1.2

Q: And the “Nuptial Chambers Without Egg Galleries % of Total” value [8]?
A: 81.8%

Q: And the “Nuptial Chambers Without Egg Galleries No.” value [8]?
A: 5.4
